# Assays:
# EP3 receptor [1] = target: T1, EP3 receptor (Homo sapiens, UniProt P43115); assay: [3H]-PGE2 binding assay (EP3 competition binding); conditions: read-out: [3H]-PGE2 Binding Ki
# T1 construct: purchased Millipore HTS092M
# T1 sequence (P43115 1-390): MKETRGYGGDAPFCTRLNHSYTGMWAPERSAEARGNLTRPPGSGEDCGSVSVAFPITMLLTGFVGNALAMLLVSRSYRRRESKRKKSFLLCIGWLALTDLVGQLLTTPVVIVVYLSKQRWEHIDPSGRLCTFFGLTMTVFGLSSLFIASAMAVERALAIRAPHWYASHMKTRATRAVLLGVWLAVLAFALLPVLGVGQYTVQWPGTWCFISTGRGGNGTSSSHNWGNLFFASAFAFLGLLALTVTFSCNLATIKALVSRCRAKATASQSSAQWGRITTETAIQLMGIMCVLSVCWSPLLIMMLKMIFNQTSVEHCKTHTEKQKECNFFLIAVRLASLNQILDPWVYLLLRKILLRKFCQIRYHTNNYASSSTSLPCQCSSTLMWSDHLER
# Method: EP3 competition binding was determined using the following materials and experimental conditions:
# Beads=Perkin Elmer RPNQ0001
# EP3 membrane=Millipore HTS092M
# Membrane concentration=2 μg/well
# Beads concentration=0.25 mg/well
# [3H]-PGE2=2 nM; DMSO—0.1%
# Binding buffer=50 mM Tris, 10 mM MgCl2, 1 mM • EDTA, PH 7.4.
# The binding buffer was removed from refrigeration (@ 4° C.) and allowed to warm to room temperature. Test compound (@ stock concentration of […] in DMSO) was serial dilutes (1:3) with 100% DMSO using Echo plate. Diluted test compound (30 nL) was dispensed to the 384-well assay plate (using Echo 550 Labcyte System). To each well was then added assay buffer (5 μl) and each well was spun. Beads were weighed out, dissolved in assay buffer to a concentration of 0.25 mg/15 μl. Original membrane was diluted with assay buffer to a concentration of 2 μg/5 μl. […] To each test well were then added diluted [3H]-PGE2 (5 μl), diluted membrane (5 μl), and dissolved beads (15 μl). The plate was equilibrated at room temperature on a plate shaker for 2 hours and then read with a TOPCOUNT scintillation plate reader. Results were analyzed using a Prism program with non-linear regression, one-site fit for Ki.
# EP3 receptor [2] = target: T1, EP3 receptor; assay: CHO cell cAMP assay (forskolin and sulprostone stimulated, HTRF); assay type: cell-based; conditions: CHO cells; sulprostone 700 nM (EC80) and FSK 2 μM (EC70), 37° C. for 30 minutes; read-out: CHO_cAMP IC50
# Method: For detection, a homogeneous competitive immunoassay (Time Resolved Fluorescence Energy Transfer (hTR-FRET)) was used.
# Cells (6K cells per well) were plated in Poly-D-Lysine coated plates the day before the assay was to be run and were incubated at 37° C. […] At the start of the assay the buffer was removed from the cells and replaced with buffer containing test compound(s). Sulprostone at an EC80 dose (700 nM) and FSK at an EC70 dose (2 μM) were added to initiate the reaction (37° C. for 30 minutes).
# FSK increases cAMP production and sulprostone decreases cAMP production produced by FSK. In this assay, EP3 antagonists will increase the cAMP to the level of cAMP generated by FSK alone.
# Approximately one hour later the plates were read on an Envision (Perkin Elmer) in HTRF mode.
# NSP, NSN, NSsample were converted to nM cAMP using the following equation: […]
# IC50 values were determined from a […] (Hill equation) of a single 11-point compound dosing.
Ki (EP3 receptor [1]),IC50 (EP3 receptor [2]),Structure (SMILES)
9 nM,20 nM,"CCn1ncc2c(F)cc(-c3ccc(C(CC)(CC)c4nnco4)c(=O)[nH]3)cc21 [Compound #42, 3-(3-(1,3,4-oxadiazol-2-yl)pentan-3-yl)-6-(1-ethyl-4-fluoro-1H-indazol-6-yl)pyridin-2(1H)-one]"
186 nM,4960 nM,"NC(=O)C(C1=CCCCC1)c1ccc(-c2ccc3ccccc3c2)[nH]c1=O (stereo not drawn) [compound 226, 2-(cyclohex-1-en-1-yl)-2-(6-(naphthalen-2-yl)-2-oxo-1,2-dihydropyridin-3-yl)acetamide]"
53 nM,385 nM,"CC(C)C(Cc1ccc(-c2ccc3cccc(F)c3c2)[nH]c1=O)c1ncc[nH]1 (stereo not drawn) [compound 307, 3-(2-(1H-Imidazol-2-yl)-3-methylbutyl)-6-(8-fluoronaphthalen-2-yl)pyridin-2(1H)-one]"
180 nM,656 nM,"CC1(c2ccc(-c3ccc4ccccc4c3)[nH]c2=O)CN/C(=N\O)N1 (stereo not drawn) [compound 288, 3-[(2E)-2-(hydroxyimino)-4-methylimidazolidin-4-yl]-6-(naphthalen-2-yl)-1,2-dihydropyridin-2-one]"
308 nM,734 nM,"CC(C)C(/C=C1\OC(=O)NC1=O)c1ccc(-c2ccc3cccc(C(F)(F)F)c3c2)[nH]c1=O (stereo not drawn) [compound 143, 5-(3-methyl-2-(2-oxo-6-(8-(trifluoromethyl)naphthalen-2-yl)-1,2-dihydropyridin-3-yl)butylidene)oxazolidine-2,4-dione]"
501 nM,2390 nM,"CC(C)C(C(=O)NCCN(C)C)c1ccc(-c2ccc3c(c2)OCCN3C)[nH]c1=O (stereo not drawn) [compound 244, N-(2-(dimethylamino)ethyl)-3-methyl-2-(6-(4-methyl-3,4-dihydro-2H-benzo[b][1,4]oxazin-7-yl)-2-oxo-1,2-dihydropyridin-3-yl)butanamide]"
180 nM,499 nM,"O=C1NC(=O)C(Cc2ccc(-c3ccc4cccc(F)c4c3)[nH]c2=O)O1 (stereo not drawn) [compound 252, 5-((6-(8-fluoronaphthalen-2-yl)-2-oxo-1,2-dihydropyridin-3-yl)methyl)oxazolidine-2,4-dione]"
–,> 20000 nM,"CCn1ncc2cc(C)c(-c3ccc(C(/C=C4/OC(=O)NC4=O)(CC)CC)c(=O)[nH]3)cc21 [compound 43, 5-(2-ethyl-2-(6-(1-ethyl-5-methyl-1H-indazol-6-yl)-2-oxo-1,2-dihydropyridin-3-yl)butylidene)oxazolidine-2,4-dione]"
121 nM,–,"CC(C)C(/C=C1\OC(=O)NC1=O)c1ccc(-c2ccc3cccc(C#N)c3c2)[nH]c1=O (mixture of isomers) [compound 142, (Z)-7-(5-(1-(2,4-dioxooxazolidin-5-ylidene)-3-methylbutan-2-yl)-6-oxo-1,6-dihydropyridin-2-yl)-1-naphthonitrile]"
2 nM,–,"CCn1ncc2c(F)cc(-c3ccc(C(CC)(CC)Cc4ncco4)c(=O)[nH]3)cc21 [Compound #41, 6-(1-ethyl-4-fluoro-1H-indazol-6-yl)-3-(3-(oxazol-2-ylmethyl)pentan-3-yl)pyridin-2(1H)-one]"
51 nM,–,"CCn1ncc2c(F)cc(-c3ccc(C4CC5CN(S(=O)(=O)C(C)C)CC5C4)c(=O)[nH]3)cc21 (stereo not drawn) [compound 205, 6-(1-ethyl-4-fluoro-1H-indazol-6-yl)-3-(2-(isopropylsulfonyl)-octahydrocyclopenta[c]pyrrol-5-yl)pyridin-2(1H)-one]"
11 nM,–,"CCn1ncc2c(F)cc(-c3ccc(C(CC)(CC)Cc4ncc[nH]4)c(=O)[nH]3)cc21 [compound 20, 3-(3-((1H-imidazol-2-yl)methyl)pentan-3-yl)-6-(1-ethyl-4-fluoro-1H-indazol-6-yl)pyridin-2(1H)-one]"
28 nM,–,"CCC(/C=C1/OC(=O)NC1=O)(CC)c1ccc(-c2ccc3c(F)cc(F)cc3c2)[nH]c1=O [compound 10, (E)-5-(2-(6-(5,7-difluoronaphthalen-2-yl)-2-oxo-1,2-dihydropyridin-3-yl)-2-ethylbutylidene)oxazolidine-2,4-dione]"
6 nM,–,"CCn1ncc2c(F)cc(-c3ccc(C(CC)(CC)c4nnc(N(C)C)o4)c(=O)[nH]3)cc21 [Compound #57, 3-(3-(5-(dimethylamino)-1,3,4-oxadiazol-2-yl)pentan-3-yl)-6-(1-ethyl-4-fluoro-1H-indazol-6-yl)pyridin-2(1H)-one]"
59 nM,–,"CCn1ncc2c(F)cc(-c3ccc(C(CC)(CC)c4nnc(C(F)(F)F)o4)c(=O)[nH]3)cc21 [Compound #45, 6-(1-ethyl-4-fluoro-1H-indazol-6-yl)-3-(3-(5-(trifluoromethyl)-1,3,4-oxadiazol-2-yl)pentan-3-yl)py-ridine-2(1H)-one]"
–,17600 nM,"CCn1nc(C)c2ccc(-c3ccc(C(C=C4OC(=O)NC4=O)(CC)CC)c(=O)[nH]3)cc21 [compound 34, 5-(2-ethyl-2-(6-(1-ethyl-3-methyl-1H-indazol-6-yl)-2-oxo-1,2-dihydropyridin-3-yl)butylidene)oxazo-lidine-2,4-dione]"
85 nM,–,"CC(C)c1cccc2ccc(-c3ccc(C(/C=C4\OC(=O)NC4=O)C(C)C)c(=O)[nH]3)cc12 (stereo not drawn) [compound 135, (Z)-5-(2-(6-(8-isopropylnaphthalen-2-yl)-2-oxo-1,2-dihydropyridin-3-yl)-3-methylbutylidene)oxazolidine-2,4-dione]"
6 nM,–,"CCn1ncc2c(F)cc(-c3ccc(C(CC)(CC)c4nnc(C)o4)c(=O)[nH]3)cc21 [Compound #271, 6-(1-ethyl-4-fluoro-1H-indazol-6-yl)-3-(3-(5-methyl-1,3,4-oxadiazol-2-yl)pentan-3-yl)pyridin-2(1H)-one]"
29 nM,–,"CCn1ncc2c(F)cc(-c3ccc(C(C(C)C)n4cnnn4)c(=O)[nH]3)cc21 (stereo not drawn) [Compound #171, 6-(1-ethyl-4-fluoro-1H-indazol-6-yl)-3-(2-methyl-1-(1H-tetrazol-1-yl)propyl)pyridin-2(1H)-one]"
165 nM,–,"CCn1ncc2c(F)cc(-c3ccc(C4CC5COC(=O)N5C4)c(=O)[nH]3)cc21 (stereo not drawn) [compound 215, 6-(6-(1-ethyl-4-fluoro-1H-indazol-6-yl)-2-oxo-1,2-dihydropyridin-3-yl)tetrahydro-1H,3H-pyrrolo[1,2-c]oxazol-3-one]"
20 nM,–,"CCn1ncc2c(F)cc(-c3ccc(C4CC5CN(C(=O)NC(C)C)CC5C4)c(=O)[nH]3)cc21 (stereo not drawn) [compound 209, 5-(6-(1-ethyl-4-fluoro-1H-indazol-6-yl)-2-oxo-1,2-dihydropyridin-3-yl)-N-isopropyl-hexahydrocyclopenta[c]pyrrole-2(1H)-carboxamide]"
195 nM,–,"CCn1ncc2c(F)cc(-c3[nH]c(=O)c(C(CC)(CC)c4nnc[nH]4)cc3F)cc21 [compound 36, 3-(3-(4H-1,2,4-triazol-3-yl)pentan-3-yl)-6-(1-ethyl-4-fluoro-1H-indazol-6-yl)-5-fluoropyridin-2(1H)-one]"
735 nM,–,"CCC(CC)(c1nnc[nH]1)c1ccc(-c2ccc3c(F)cc(F)cc3c2)[nH]c1=O [compound 33, 3-(3-(4H-1,2,4-triazol-3-yl)pentan-3-yl)-6-(5,7-difluoronaphthalen-2-yl)pyridin-2(1H)-one]"
12 nM,–,"CCn1ncc2c(F)cc(-c3ccc(C4CCC5(CC4)CCN(S(=O)(=O)C(C)C)CC5)c(=O)[nH]3)cc21 [compound 204, 6-(1-ethyl-4-fluoroindazol-6-yl)-3-[3-(propane-2-sulfonyl)-3-azaspiro[5.5]undecan-9-yl]-1H-pyridin-2-one]"
1080 nM,–,"CCC(CC)(c1ncc[nH]1)c1ccc(-c2ccc3cc(F)cc(F)c3c2)[nH]c1=O [compound 50, 3-(3-(1H-imidazol-2-yl)pentan-3-yl)-6-(6,8-difluoronaphthalen-2-yl)pyridin-2(1H)-one]"
787 nM,–,"CCn1ncc2c(F)cc(-c3ccc(C(CC4CCNC4=O)C(C)C)c(=O)[nH]3)cc21 (stereo not drawn) [compound 148, anti-6-(1-ethyl-4-fluoro-1H-indazol-6-yl)-3-(3-methyl-1-(2-oxopyrrolidin-3-yl)butan-2-yl)pyridin-2(1H)-one]"

# Source: patent US10336701B2, “Pyridin-2-one derivatives of formula (II) useful as EP3 receptor antagonists” (Janssen Pharmaceutica NV, priority 2017, dated 2019)
